Where only a bound is given, the exact number is not on record here.

One test relates to Botrytis cinerea. In words: Fungistatic activity against Botrytis cinerea assessed as inhibition of fungal growth at 100 mg/L relative to control. Format: functional. As to conditions: read-out: GI.
The subject of test [1] is Colletotrichum gloeosporioides. Put plainly: Fungistatic activity against Colletotrichum gloeosporioides assessed as inhibition of fungal growth at 100 mg/L relative to control. Format: functional. Conditions: read-out: GI.

Take `CN(C)S(=O)(=O)N(SC(F)(Cl)Cl)c1ccccc1` [DICHLOFLUANID]: the inhibition of growth at 100 µg/mL in the test on Botrytis cinerea is above 95%.
Take `Cc1ccc(NC(CO)c2ccccc2)cc1` (stereo unspecified): the inhibition of growth at 100 µg/mL in test [1] amounted to 40%; in the test on Botrytis cinerea, 63%.
Turning to `Cc1ccc(N(CC(O)COc2ccccc2)CC(O)COc2ccccc2)cc1` (stereo unspecified), the values for the inhibition of growth at 100 µg/mL (in test [1]; in the test on Botrytis cinerea) were below 30% and 53%, respectively.
Turning to `Cc1ccc(NCC(O)COc2ccccc2)cc1` (stereo unspecified), the inhibition of growth at 100 µg/mL in test [1] worked out at 72%; with Botrytis cinerea it was 87%.
Consider `Cc1ccc(NCC(C)(C)O)cc1`, for which the values for the inhibition of growth at 100 µg/mL (in test [1]; in the test on Botrytis cinerea) were below 30% and 62%, respectively.
The corresponding values for `O=[N+]([O-])c1ccc(NC(CO)c2ccccc2)cc1` (stereo unspecified) are 55% and 69%.

Values taken from ChEMBL document CHEMBL1268898, “Metallocene catalyzed synthesis of fungistatic vicinal aminoalcohols under solvent free conditions” (2010).
